In patent publication US7541367B2, “3-benzoimidazolyl-pyrazolopyridines useful in treating kinase disorders” (Janssen Pharmaceutica, N.V., priority 2005, dated 2009):
pIC50: −log10 of the molar value.

Columns and labels:
RET = molecular target: T1, RET (Homo sapiens, UniProt P07949); assay: RET kinase screening assay (33P-ATP FlashPlate); format: biochemical; conditions: human RET kinase domain; 10 μM ATP; 1 hr at 30° C;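 further: biotinylated peptide substrate captured on streptavidin FlashPlate, 33P phosphate transfer read by scintillation counting, 1% DMSO, lower incorporation means inhibition, percent relative to per-plate maximum and minimum signals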
T1 construct: polyhistidine (N)
T1 sequence (P07949 658-1114 limits assumed): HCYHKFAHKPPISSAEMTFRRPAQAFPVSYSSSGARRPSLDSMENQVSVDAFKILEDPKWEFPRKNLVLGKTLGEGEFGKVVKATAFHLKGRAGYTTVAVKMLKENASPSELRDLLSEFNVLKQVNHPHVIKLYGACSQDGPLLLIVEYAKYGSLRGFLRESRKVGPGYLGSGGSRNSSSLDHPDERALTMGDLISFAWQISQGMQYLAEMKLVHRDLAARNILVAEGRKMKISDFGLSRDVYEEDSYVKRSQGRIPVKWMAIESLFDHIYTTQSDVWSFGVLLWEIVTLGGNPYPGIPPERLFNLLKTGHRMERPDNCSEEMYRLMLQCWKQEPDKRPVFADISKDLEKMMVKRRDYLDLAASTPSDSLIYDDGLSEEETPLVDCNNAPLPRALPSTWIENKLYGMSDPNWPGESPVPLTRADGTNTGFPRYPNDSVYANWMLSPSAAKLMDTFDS

VEGF-R2 = molecular target: T2, VEGF-R2 (Rattus norvegicus, UniProt O08775); assay: VEGF-R2 kinase screening assay (33P-ATP FlashPlate); format: biochemical; conditions: rat VEGF-R2 kinase domain; 10 μM ATP; 1 hr at 30° C;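 further: Read-out is ³³P incorporation from ³³P-γ-ATP into biotinylated peptide substrate captured on streptavidin FlashPlate, counted by scintillation, 1% DMSO final, inhibition scaled between per-plate maximum and minimum signals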
T2 construct: polyhistidine (N)
T2 sequence (O08775 786-1343): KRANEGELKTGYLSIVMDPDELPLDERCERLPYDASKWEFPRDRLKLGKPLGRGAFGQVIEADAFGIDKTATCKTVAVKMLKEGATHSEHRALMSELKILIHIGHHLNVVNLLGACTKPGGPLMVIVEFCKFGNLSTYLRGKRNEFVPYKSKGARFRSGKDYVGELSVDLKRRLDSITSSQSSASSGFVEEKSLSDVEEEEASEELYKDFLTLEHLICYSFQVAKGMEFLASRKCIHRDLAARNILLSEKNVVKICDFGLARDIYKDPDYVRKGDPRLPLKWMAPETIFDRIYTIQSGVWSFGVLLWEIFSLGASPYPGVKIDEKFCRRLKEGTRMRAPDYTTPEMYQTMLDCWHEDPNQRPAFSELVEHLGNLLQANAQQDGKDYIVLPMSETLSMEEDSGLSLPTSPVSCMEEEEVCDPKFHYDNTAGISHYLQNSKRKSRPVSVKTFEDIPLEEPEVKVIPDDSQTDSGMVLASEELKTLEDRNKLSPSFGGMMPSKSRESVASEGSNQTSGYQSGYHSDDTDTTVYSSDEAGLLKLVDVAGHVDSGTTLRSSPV

HER2 = molecular target: T3, HER2 (Homo sapiens, UniProt P04626); assay: HER2 kinase screening assay (33P-ATP FlashPlate); format: biochemical; conditions: GST-HIS6 HER-2 aa 679 to 1255; 10 μM ATP; 1 hr at 30° C;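 further: Biotin-poly(GT) 4:1 peptide captured on streptavidin FlashPlate, 33P transfer from γ-ATP read by scintillation counting, lower incorporation means inhibition, 1% DMSO final, 100 µL reaction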
T3 construct: GST (Glutathione-S-Transferase) (N); HIS6 (N); thrombin cleavage site (N); purchased Proqinase, Freiburg, Germany
T3 sequence (P04626 679-1255): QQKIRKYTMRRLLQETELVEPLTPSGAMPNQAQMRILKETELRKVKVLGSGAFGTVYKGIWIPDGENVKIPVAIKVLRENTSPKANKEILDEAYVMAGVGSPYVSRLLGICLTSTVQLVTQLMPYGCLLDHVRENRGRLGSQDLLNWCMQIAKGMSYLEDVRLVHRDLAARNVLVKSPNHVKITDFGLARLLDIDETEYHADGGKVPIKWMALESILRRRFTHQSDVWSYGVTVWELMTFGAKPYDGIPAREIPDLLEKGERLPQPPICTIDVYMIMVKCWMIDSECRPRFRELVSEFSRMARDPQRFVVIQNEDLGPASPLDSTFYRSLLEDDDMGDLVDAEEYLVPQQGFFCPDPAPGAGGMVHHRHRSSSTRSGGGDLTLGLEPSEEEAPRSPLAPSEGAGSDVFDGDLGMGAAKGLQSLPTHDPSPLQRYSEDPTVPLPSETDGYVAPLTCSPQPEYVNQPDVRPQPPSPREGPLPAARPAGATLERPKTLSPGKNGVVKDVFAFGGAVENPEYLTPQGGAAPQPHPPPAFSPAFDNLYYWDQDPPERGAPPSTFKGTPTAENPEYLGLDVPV

CDK1 = molecular target: T4, CDK1 (Homo sapiens, UniProt P06493); assay: CDK-1 kinase screening assay (33P-ATP FlashPlate); format: biochemical; conditions: human CDK1 with cyclin B; 10 μM ATP; 1 hr at 30° C
T4 construct: purchased New England Biolabs, Beverly, Mass; 6020; host or cells: insect cells
T4 sequence (P06493 whole entry): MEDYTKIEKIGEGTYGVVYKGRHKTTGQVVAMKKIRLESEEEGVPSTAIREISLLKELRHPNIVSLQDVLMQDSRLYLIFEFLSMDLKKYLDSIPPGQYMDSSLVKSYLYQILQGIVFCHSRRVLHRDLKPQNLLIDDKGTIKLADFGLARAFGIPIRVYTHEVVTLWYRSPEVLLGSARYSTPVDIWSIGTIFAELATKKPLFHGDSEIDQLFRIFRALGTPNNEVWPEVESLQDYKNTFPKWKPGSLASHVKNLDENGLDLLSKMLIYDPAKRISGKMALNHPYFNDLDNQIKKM
T4 sequence (P14635 whole entry partner): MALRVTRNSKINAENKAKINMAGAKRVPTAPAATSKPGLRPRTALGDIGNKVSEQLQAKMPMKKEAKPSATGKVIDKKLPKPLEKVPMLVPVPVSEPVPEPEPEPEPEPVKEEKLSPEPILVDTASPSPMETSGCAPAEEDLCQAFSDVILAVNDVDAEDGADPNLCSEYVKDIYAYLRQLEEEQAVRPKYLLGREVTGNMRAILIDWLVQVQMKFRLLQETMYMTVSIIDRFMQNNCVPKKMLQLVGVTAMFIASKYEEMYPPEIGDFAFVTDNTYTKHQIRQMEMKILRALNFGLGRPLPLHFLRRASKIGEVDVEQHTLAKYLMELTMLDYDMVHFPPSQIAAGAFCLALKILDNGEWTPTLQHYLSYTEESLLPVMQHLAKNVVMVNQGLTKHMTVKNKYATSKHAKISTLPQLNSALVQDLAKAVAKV

[1] = system: HeLa cervical adenocarcinoma; assay: Cell Proliferation Inhibition Assay (14C-thymidine incorporation), HeLa; format: cell-based; conditions: Homo sapiens, HeLa, HeLa cells;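 further: test compound in DMSO added to cells seeded in scintillating 96-well plates, DMSO-only wells as control, uptake of methyl 14C-thymidine into new DNA counted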
A375 malignant melanoma = assay: Cell Proliferation Inhibition Assay (14C-thymidine incorporation), A375; format: cell-based; conditions: Homo sapiens, A-375, A375 cells;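 further: proliferation measured by radiolabelled thymidine uptake into new DNA, counted in scintillating 96-well plates, compound-treated wells compared with DMSO-only control wells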
HCT-116 colon carcinoma = assay: Cell Proliferation Inhibition Assay (14C-thymidine incorporation), HCT-116; format: cell-based; conditions: Homo sapiens, HCT-116, HCT-116 cells;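 further: proliferation measured as methyl 14C-thymidine uptake into new DNA, counted in 96-well scintillating microplates, compared with DMSO-only control wells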
Aurora-A = molecular target: T5, Aurora-A (Mus musculus, UniProt P97477); assay: Aurora-A kinase screening assay (33P-ATP FlashPlate); format: biochemical; conditions: 10 μM ATP, 1 hr at 30° C;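 further: His-tagged mouse Aurora-A phosphorylating a biotinylated peptide captured on streptavidin plates, read as 33P uptake by scintillation counting, 1% DMSO, inhibition scaled between per-plate maximum and minimum signals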
T5 construct: polyhistidine (N)
T5 sequence (P97477 1-395): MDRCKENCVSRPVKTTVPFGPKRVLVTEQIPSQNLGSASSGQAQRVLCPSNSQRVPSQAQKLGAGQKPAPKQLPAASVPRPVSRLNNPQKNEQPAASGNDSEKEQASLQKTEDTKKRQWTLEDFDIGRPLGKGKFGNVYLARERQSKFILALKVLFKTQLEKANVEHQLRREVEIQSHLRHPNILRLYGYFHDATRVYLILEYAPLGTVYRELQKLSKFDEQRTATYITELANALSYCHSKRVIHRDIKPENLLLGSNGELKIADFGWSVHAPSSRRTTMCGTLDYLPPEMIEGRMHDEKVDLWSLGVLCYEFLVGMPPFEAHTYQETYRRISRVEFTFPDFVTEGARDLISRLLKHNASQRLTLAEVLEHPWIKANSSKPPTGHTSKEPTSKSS

Compound	pIC50 (RET)	pIC50 (VEGF-R2)	pIC50 (HER2)	pIC50 (CDK1)	pIC50 [1]	pIC50 (A375 malignant melanoma)	pIC50 (HCT-116 colon carcinoma)	pIC50 (Aurora-A)
COCc1cccc2[nH]c(-c3n[nH]c4ncc(-c5c[nH]c6ccccc56)cc34)nc12 [Cpd 39, 5-(1H-indol-3-yl)-3-(4-methoxymethyl-1H-benzoimidazol-2-yl)-1H-pyrazolo[3,4-b]pyridine]	< 4.00	6.57	< 4.00	5.92	5.77	7.45	7.59	< 6.00
COCc1cccc2[nH]c(-c3n[nH]c4ncc(-c5cncc(CN(C)C)c5C)cc34)nc12 [Cpd 61, {5-[3-(4-methoxymethyl-1H-benzoimidazol-2-yl)-1H-pyrazolo[3,4-b]pyridin-5-yl]-4-methyl-pyridin-3-ylmethyl}-dimethyl-amine]	< 5.00	5.39	< 5.00	6.55	5.74	6.66	7.00	6.49
COCc1cccc2[nH]c(-c3n[nH]c4ncc(-c5ccc(OC)nc5)cc34)nc12 [Cpd 63, 3-(4-methoxymethyl-1H-benzoimidazol-2-yl)-5-(6-methoxy-pyridin-3-yl)-1H-pyrazolo[3,4-b]pyridine]	< 4.00	6.50	< 4.00	< 5.00	5.00	7.12	6.92	~4.00
COCc1cccc2[nH]c(-c3n[nH]c4ncc(-c5ccc(N6CCOCC6)nc5)cc34)nc12 [Cpd 66, 3-(4-methoxymethyl-1H-benzoimidazol-2-yl)-5-(6-morpholin-4-yl-pyridin-3-yl)-1H-pyrazolo[3,4-b]pyridine]	< 4.00	6.92	< 4.00	< 4.00	5.97	8.36	7.69	< 6.00

The remaining lines, values ahead:

pIC50 (RET)	pIC50 (VEGF-R2)	pIC50 (HER2)	pIC50 (CDK1)	pIC50 [1]	pIC50 (A375 malignant melanoma)	pIC50 (HCT-116 colon carcinoma)	pIC50 (Aurora-A)	Compound
< 6.00	7.43	< 5.00	6.98	6.15	6.48	6.41	5.82	COCc1cccc2[nH]c(-c3n[nH]c4ncc(-c5cncc(CNC(C)(C)C)c5)cc34)nc12 [Cpd 53, tert-butyl-{5-[3-(4-methoxymethyl-1H-benzoimidazol-2-yl)-1H-pyrazolo[3,4-b]pyridin-5-yl]-pyridin-3-ylmethyl}-amine]
< 5.00	< 6.00	< 4.00	7.18	6.16	6.92	7.16	< 6.00	COCc1cccc2[nH]c(-c3n[nH]c4ncc(-c5cnccc5C)cc34)nc12 [Cpd 57, 3-(4-methoxymethyl-1H-benzoimidazol-2-yl)-5-(4-methyl-pyridin-3-yl)-1H-pyrazolo[3,4-b]pyridine]
< 5.00	5.52	~4.00	6.33	5.80	7.95	7.40	~6.00	COCc1cccc2[nH]c(-c3n[nH]c4ncc(-c5cncc(CN6CCOCC6)c5C)cc34)nc12 [Cpd 60, 3-(4-methoxymethyl-1H-benzoimidazol-2-yl)-5-(4-methyl-5-morpholin-4-ylmethyl-pyridin-3-yl)-1H-pyrazolo[3,4-b]pyridine]
~5.00	5.55	< 4.00	7.17	5.93	7.21	6.64	5.76	CNCc1cncc(-c2cnc3[nH]nc(-c4nc5c(COC)cccc5[nH]4)c3c2)c1C [Cpd 62, {5-[3-(4-methoxymethyl-1H-benzoimidazol-2-yl)-1H-pyrazolo[3,4-b]pyridin-5-yl]-4-methyl-pyridin-3-ylmethyl}-methyl-amine]
